Source: patent US20150086618A1, “PHOSPHOLIPID MICELLAR AND LIPOSOMAL COMPOSITIONS AND USES THEREOF” (THE BOARD OF TRUSTEES OF THE UNIVERSITY OF ILLINOIS, priority 2008, published 2015)
Entries after “also recorded” stand apart in the source; their conditions may differ.

How the values were obtained:
[1] = tested on: TREM-1; assay: Mouse model of ALI induced by aerosolized LPS, LP17 (Example 13); format: in vivo, Wild-type mice; details: 3 nmol s.c.; free peptide 48 and 24 h before LPS, nanomicellar 48 h before LPS
Description: The efficacy of nanomicellar LP17 was tested in a mouse model of ALI induced by aerosolized LPS. Wild-type mice were treated with LP17 or control peptide and with LP17 or control peptide self-associated with nanomicelles (each, 3 nmol; a dose similar to that used in previous experiments). Free peptides were administered subcutaneously 48 and 24 h before administration of LPS. Peptides self-associated with nanomicelles were administered to the mice only 48 h before LPS nebulization. Mice were exposed to nebulized LPS in a dose of 1 mg/ml for 40 min as previously described (Sadikot et al., Am. J. Respir. Crit. Care Med. 164: 873-8, 2001.) Control mice were treated with nebulized endotoxin-free PBS. TREM-1 was induced in lungs of mice at 4 hours after treatment with LPS. After 4 h, a bronchoalveolar lavage was carried out to determine total cell count and neutrophil count. Lungs, liver, and spleen were harvested from the mice and frozen for RNA and protein extraction. Real-time RT-PCR was carried out to analyze fold induction in TREM-1 gene expression.

[2] = α-helicity of LP17 and control peptide in saline and SSM; format: physicochemical; details: peptide 20 μM, SSM 5 mM
Description: The α-helicity of LP17 (20 μM) in saline and in SSM (5 mM) was tested. A control peptide ([…] (SEQ ID NO:2)) was also tested in saline and in SSM at the same concentrations.

[3] = Dynamic light scattering (NICOMP) particle size of PxB, PxB with DSPE-PEG2000 and SSM in saline; format: physicochemical; details: for particle size distribution with scale 10-10,000 nm: 6.9 mM PxB in saline, 2 hours, 25° C.
Description: In order to determine the optimum peptide to lipid ratio of PxB to SSM, fluorescence spectroscopy and NICOMP analysis were carried out on PxB at varying concentrations in sterile normal saline (SNS) and with DSPE-PEG2000 at a fixed concentration. In these experiments, PxB Sulphate (MW […], Research Products International Corp, Cat: P40160-1.0, Lot#003746), DSPE-PEG2000 (MW 2811 g/mol, Lipoid, Cat#PE18:0/18:0/PEG 2000, Lot#899346-1/10), Methanol, and HEPES Buffer (pH˜7.4) were used. Controls: SSM (1 mM) and Samples: PxB-SSM (1:1000) were prepared.
Specifically, PxB (at various concentrations ranging from 0.5 mM to 6.9 mM) in sterile normal saline (SNS) was incubated with DSPE-PEG2000 (1 mM). Stock solutions of PxB and DSPE-PEG2000 were prepared and equilibrated for 2 hours. After the 2 hour equilibration, stock solutions were characterized by dynamic light scattering (DLS) using the NICOMP 380 Submicron Particle Sizer (Particle Sizing Systems, Inc. Santa Barbara, Calif.). […] A SSM sample (1 mM) (n=1) was prepared in saline alone for comparison with the PxB-SSM samples. Concurrent samples of PxB (0.5, 1.0, 2.3 and 6.9 mM) were prepared in saline alone or with SSM (DSPE-PEG2000, 1 mM) (n=8). The samples were measured for 30 minutes using DLS at approximately 2, 24, and 48 hours after time 0.

[4] = DSPE-PEG2000:PxB saturation ratio by fluorescence spectroscopy; format: physicochemical; details: at saturation point
Description: To determine the saturation point for DSPE-PEG2000 with PxB, fluorescence spectroscopy was carried out. PxB concentration was fixed at 50 μM and the concentration of DSPE-PEG2000 was varied to allow DSPE-PEG2000:PxB ratios of 1:1, 3:1, 6:1, 10:1, 20:1, 60:1, and 100:1. A stock solution of DSPE-PEG2000 was prepared and allowed to equilibrate at 25° C. in the dark under argon gas for two hours. A stock solution of PxB (100 μM) was prepared in HEPES Buffer. Samples were prepared by pipetting the appropriate amount of buffer and stock solutions into each vial. Fluorescence measurements were made after allowing each sample to equilibrate for 1 hour in the dark at 25° C. 400 μl of each sample was measured three times by the spectrofluorometer. The maximum intensity of each sample was recorded from the spectrofluorometer and analyzed using Microsoft Excel and Sigma Plot.
To fit a curve to the graph of the data the equation was used because its shape best fit the data, where
When the lipid to peptide ratio approaches infinity, a plateau is reached in terms of the fluorescence intensity and the equation becomes where yp is the height of the plateau. […]
Using this value as y, the lipid to peptide saturation point can be calculated by substituting the values into the equation and solving for x, […]

[5] = Blood glucose in mice with LPS-induced ALI (Example 17); format: in vivo; details: LPS-exposed mice, GLP-1 1250 μg/kg, cardiac puncture at conclusion
Description: Blood was obtained by cardiac puncture at the conclusion of the treatment. Median glucose concentration was 109, 183, 157, and 125 mg/dl, respectively.

[6] = Hydrophilicity/hydrophobicity balance of peptide; format: physicochemical
[7] = Fluorescence anisotropy of GLP-1(7-36) in SSM / SSMM or saline; format: physicochemical; details: GLP-1(7-36) 125 μM in saline; n=3
Text: Fluorescence anisotropy. […] The data indicated an increased viscosity of the peptide surrounding in the presence of SSM in contrast to saline.
This hypothesis was studied via determination of peptide fluorimetric anisotropy in the presence and absence of nanomicelles. This technique measures rigidity (or rotational freedom) of fluorophores by intensity of emitted fluorescence polarized parallel and perpendicular to that of excitation beam. A molecule that is restricted in its rotational motion due to viscous environment will emit fluorescence that is predominantly parallel to its excitation light source, giving a high anisotropy value.

[8] = tested on: ALI mice; assay: LPS-nebulization acute lung injury model, treatment after start of LPS (Example 7); format: in vivo; details: cardiac puncture at conclusion of treatment; LPS-exposed mice
Description: Mice are induced with acute lung injury (ALI) by treatment with lipopolysaccharide (LPS) nebulization (as described by Sadikot et al. […]: 873-8, 2001; Koay et al., Am. J. Respir. Cell Mol. Biol. 26: 572-8, 2002). […]
A dose of drug was administered subcutaneously (s.c.) 30 min after initialization of aerosolized LPS nebulization. […] All mice were sacrificed 4 hr after completion of nebulization. For each animal, bronchoalveolar lavage was carried out and the lungs were removed for analysis. Data from untreated (control) mice (no LPS nebulization or drug treatment) was also included in the data analysis for comparison.

Substance: LQVTDSGLYRCVIYHPP (SEQ ID NO: 1) (listed as Mus musculus) [LP17]
- expression of TREM-1 mRNA [1]: attenuated
- percent α-helicity in SSM compared to saline [2]: significantly greater

Substance: polymyxin B [PxB]
- critical micelle concentration (CMC) of PxB [3]: 1.0 to 2.3 mM
- particle size (diameter), INT-WT NICOMP ([3]; 0.5 mM PxB, saline alone or with 1.0 mM DSPE-PEG2000, 24 hours): approximately 520 nm
- particle size (diameter) ([3]; 1.0 mM PxB, 24 hours): 520 nm
- particle size (diameter), INT-WT NICOMP ([3]; 1.0 mM PxB, saline alone or with 1.0 mM DSPE-PEG2000, 2 hours): 240 nm
- large aggregates observed or not ([3]; 2.3 mM PxB): large aggregates were observed
- particle size (diameter), INT-WT NICOMP ([3]; 2.3 mM PxB, saline alone or with 1 mM DSPE-PEG2000, 2 hours): approximately 850 nm
- particle size distribution with scale 10-10,000 nm [3]: did not show peaks
- particle size distribution with scale 10-10,000 nm ([3]; listed as PxB sulfate): no large aggregates
- average particle size (diameter) ([3]; 6.9 mM PxB, 24 and 48 hour time points): 517 nm
- particle size (diameter), VOL-WT NICOMP ([3]; 6.9 mM PxB, 48 hours): 4 nm
- particle size (diameter), INT-WT NICOMP ([3]; 6.9 mM PxB, saline alone or with 1 mM DSPE-PEG2000, 2 hours, listed as PxB sulfate): 640 nm
- particle size (diameter), INT-WT NICOMP ([3]; 6.9 mM PxB, saline alone or with 1 mM DSPE-PEG2000, 48 hours): 4 nm
- particle size (diameter), INT-WT NICOMP ([3]; 6.9 mM PxB, saline alone or with 1 mM DSPE-PEG2000, 48 hours, listed as PxB sulfate): 517 nm
- aggregation of PxB ([3]; all concentrations tested (0.5-6.9 mM), saline, 2-48 hours): showed aggregation of the peptide; also recorded: formed aggregates
- PxB aggregate formation ([3]; range of concentrations tested, 10 μM to 23 mM): aggregates formed
- molecules of PxB per micelle [4]: 3.6

Substance: glucagon-like peptide I (7-36) [GLP-1]
- Median glucose concentration [5]: 157 mg/dL
- hydrophilicity/hydrophobicity balance [6]: ~0.987
- fluorescence anisotropy [7]: 0.045±0.012
- Median blood glucose concentration [8]: 157 mg/dL
